The term IC50 denotes the concentration that gives 50% inhibition. One may read the logD as the decadic logarithm of the distribution of all forms, ionised or not, between an organic phase and buffer at a given pH. The solubility is the concentration that dissolves in the medium under given conditions. Low readings indicate little dissolved substance, high ones much dissolved substance.

Experimental findings from US10221173B2, “Chemical compounds” (AstraZeneca AB, priority 2017, dated 2019) are described below.

In data set [1] the target is recombinant human Estrogen Receptor alpha ligand binding domain (ER alpha-LBD (GST)) (Homo sapiens (Human), UniProt P03372). As to the kind of experiment: ERα binding assay (LanthaScreen TR-FRET competition). (In TR-FRET formats the signal depends on donor and acceptor labels being close together.)
Data set [2] addresses T1, Estrogen Receptor (ERα) in MCF-7 cells (Homo sapiens (Human), UniProt P03372). As to the kind of experiment: MCF-7 ER down-regulation assay (immuno-fluorescence). It is filed as cell-based.
Description: The ability of compounds to down-regulate Estrogen Receptor (ER) numbers was assessed in a cell based immuno-fluorescence assay using the MCF-7 human ductal carcinoma breast cell line. MCF-7 cells were revived directly from a cryovial (approx 5×10^6 cells) in Assay Medium (phenol red free Dulbecco's Modified Eagle's medium (DMEM); Sigma D5921) containing 2 mM L-Glutamine and 5% (v/v) Charcoal/Dextran treated foetal calf serum. Cells were syringed once using a sterile 18G×1.5 inch (1.2×40 mm) broad gauge needle and cell density was measured using a Coulter Counter (Beckman). […] Following cell seeding, plates were incubated overnight at 37° C., 5% CO2 (Liconic carousel incubator). Test data was generated using the LabCyte Echomodel 555 compound reformatter which is part of an automated workcell (Integrated Echo 2 workcell). Compound stock solutions (10 mM) of the test compounds were used to generate a 384 well compound dosing plate (Labcyte P-05525-CV1). […] 40 μL of DMSO added to wells in row P on the source plate allowed for DMSO normalisation across the dose range. To dose the control wells 40 μL of DMSO was added to row O1 and 40 μL of 100 μM fulvestrant in DMSO was added to row O3 on the compound source plate.
The Echo uses acoustic technology to perform direct microplate-to-microplate transfers of DMSO compound solutions to assay plates. The system can be programmed to transfer volumes as low as 2.5 nL in multiple increments between microplates and in so doing generates a serial dilution of compound in the assay plate which is then back-filled to normalise the DMSO concentration across the dilution range. […] The fixing method described above was carried out on the Integrated Echo 2 workcell. Immunostaining was performed using an automated AutoElisa workcell. The PBS/Proclin was aspirated from all wells and the cells permeabilised with 40 μL PBS containing 0.5% Tween™ 20 (v/v) for 1 hour at room temperature. The plates were washed three times in 250 μL of PBS/0.05% (v/v) Tween 20 with Proclin (PBST with a Biocide preservative) and then 20 μL of ERα (SP1) Rabbit monoclonal antibody (Thermofisher) 1:1000 in PBS/Tween™/3% (w/v) Bovine Serum Albumin was added. The plates were incubated overnight at 4° C. (Liconic carousel incubator) and then washed three times in 250 μL of PBS/0.05% (v/v) Tween™ 20 with Proclin (PBST). The plates were then incubated with 20 μL/well of a goat anti-rabbit IgG AlexaFluor 594 or goat anti-rabbit AlexaFluor 488 antibody (Molecular Probes) with Hoechst at 1:5000 in PBS/Tween™/3% (w/v) Bovine Serum Albumin for 1 hour at room temperature. The plates were then washed three times in 250 μL of PBS/0.05% (v/v) Tween™ 20 with Proclin (PBST with a Biocide preservative). 20 μL of PBS was added to each well and the plates covered with a black plate seal and stored at 4° C. before being read. […] The mean total intensity was normalized for cell number giving the total intensity per cell. The data was exported into a suitable software package (such as Origin) to perform curve fitting analysis.
Data set [3] concerns the target estrogen receptor (ERα) in CAMA-1 cells (Homo sapiens (Human), UniProt P03372). Kind of data set: Western blotting assay, ER down-regulation in CAMA-1. It is filed as cell-based. The conditions noted are these: CAMA-1, 100 nM compound, 48 h, vs 100 nM fulvestrant. (In western blotting, separated proteins are transferred to a membrane and probed.)
In data set [4] the target is T1, Estrogen Receptor (ERα) in MCF-7 cells. As to the kind of experiment: Western blotting assay, ER down-regulation in MCF-7. It is filed as cell-based. As to conditions: MCF-7, 100 nM compound, 48 h, vs 100 nM fulvestrant.
Data set [5] in a line: Log D (shake flask, 1-octanol/aqueous buffer). It is filed as physicochemical. The conditions noted are these: 1-octanol/aqueous buffer, pH 7.4, pH 7.4.
Data set [6] in a line: Thermodynamic solubility (shake-flask). It is filed as physicochemical. As to conditions: aqueous phosphate buffer, 25 °C, pH 7.4, aqueous buffer, thermodynamic from solid, phosphate buffer pH 7.4, 24 hours.
Description: The thermodynamic solubility of a research compound is measured under standard conditions. It is a shake-flask approach that uses 10 mM DMSO solutions which are supplied from the Compound Managements liquid store and is a high throughput method. The dried compounds are equilibrated in an aqueous phosphate buffer (pH 7.4) for 24 hours at 25° C., the portion with the dissolved compound is then separated from the remains. The solutions are analyzed and quantified using UPLC/MS/MS, QC-samples are incorporated in each assay-run to ensure the quality of the assay.
The nature of data set [7]: Human plasma protein binding (equilibrium dialysis). It is filed as in vitro ADME.
Description: The automated equilibrium dialysis assay in human plasma uses the RED (Rapid Equilibrium Dialysis) Device and sample handling. The assay generally runs over two to three days including delivery of results. After dialysis for 18 hours, plasma and buffer samples are prepared for analysis by liquid chromatography and mass spectrometry. Samples are generally tested in singlicates and quantified by LC/MSMS by using a 7-point calibration curve in plasma. The compounds are pooled together in plasma pools up to 10 compounds. Three reference compounds are used in each run, Propranolol, Metoprolol and Warfarin. Warfarin is used as a control in each pool and Propranolol and Metoprolol are placed randomly in each run. An in-house Excel macro is used for preparation of files for the robot and the mass spectrometer and is also used for the calculations of fraction unbound (fu %) in plasma.
For data set [8], the target named is hERG potassium channel (Homo sapiens (Human), UniProt Q12809).

Converted amounts (≈) assume the structure as drawn. Where only a bound is given, the exact number is not on record here.

T1 sequence (P03372 whole entry): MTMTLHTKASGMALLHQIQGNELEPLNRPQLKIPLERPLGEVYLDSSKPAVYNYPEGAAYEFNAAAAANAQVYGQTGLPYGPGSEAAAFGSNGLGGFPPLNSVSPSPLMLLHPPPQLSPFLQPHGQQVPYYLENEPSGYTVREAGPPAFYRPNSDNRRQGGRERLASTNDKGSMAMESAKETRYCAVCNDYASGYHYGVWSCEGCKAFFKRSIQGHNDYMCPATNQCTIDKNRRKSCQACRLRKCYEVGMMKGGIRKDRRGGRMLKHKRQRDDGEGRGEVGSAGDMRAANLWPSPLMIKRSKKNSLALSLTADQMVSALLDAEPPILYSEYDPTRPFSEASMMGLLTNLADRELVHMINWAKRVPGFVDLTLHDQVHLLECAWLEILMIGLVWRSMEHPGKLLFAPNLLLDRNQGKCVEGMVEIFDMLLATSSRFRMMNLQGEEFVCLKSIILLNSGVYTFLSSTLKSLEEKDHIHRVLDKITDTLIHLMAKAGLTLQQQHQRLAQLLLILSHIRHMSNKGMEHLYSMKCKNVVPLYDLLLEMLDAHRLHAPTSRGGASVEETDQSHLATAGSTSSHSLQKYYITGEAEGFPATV
Sequence of estrogen receptor (ERα) in CAMA-1 cells (P03372 whole entry): as above
Sequence of recombinant human Estrogen Receptor alpha ligand binding domain (ER alpha-LBD (GST)) (P03372 307-554): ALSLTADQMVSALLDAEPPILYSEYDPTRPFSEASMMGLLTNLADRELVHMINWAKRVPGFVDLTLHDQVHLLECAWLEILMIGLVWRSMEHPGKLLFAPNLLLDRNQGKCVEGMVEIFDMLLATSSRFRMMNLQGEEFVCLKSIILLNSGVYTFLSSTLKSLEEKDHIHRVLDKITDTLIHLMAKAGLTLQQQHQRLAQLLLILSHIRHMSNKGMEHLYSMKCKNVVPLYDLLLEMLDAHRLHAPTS
Sequence of hERG potassium channel (Q12809 whole entry): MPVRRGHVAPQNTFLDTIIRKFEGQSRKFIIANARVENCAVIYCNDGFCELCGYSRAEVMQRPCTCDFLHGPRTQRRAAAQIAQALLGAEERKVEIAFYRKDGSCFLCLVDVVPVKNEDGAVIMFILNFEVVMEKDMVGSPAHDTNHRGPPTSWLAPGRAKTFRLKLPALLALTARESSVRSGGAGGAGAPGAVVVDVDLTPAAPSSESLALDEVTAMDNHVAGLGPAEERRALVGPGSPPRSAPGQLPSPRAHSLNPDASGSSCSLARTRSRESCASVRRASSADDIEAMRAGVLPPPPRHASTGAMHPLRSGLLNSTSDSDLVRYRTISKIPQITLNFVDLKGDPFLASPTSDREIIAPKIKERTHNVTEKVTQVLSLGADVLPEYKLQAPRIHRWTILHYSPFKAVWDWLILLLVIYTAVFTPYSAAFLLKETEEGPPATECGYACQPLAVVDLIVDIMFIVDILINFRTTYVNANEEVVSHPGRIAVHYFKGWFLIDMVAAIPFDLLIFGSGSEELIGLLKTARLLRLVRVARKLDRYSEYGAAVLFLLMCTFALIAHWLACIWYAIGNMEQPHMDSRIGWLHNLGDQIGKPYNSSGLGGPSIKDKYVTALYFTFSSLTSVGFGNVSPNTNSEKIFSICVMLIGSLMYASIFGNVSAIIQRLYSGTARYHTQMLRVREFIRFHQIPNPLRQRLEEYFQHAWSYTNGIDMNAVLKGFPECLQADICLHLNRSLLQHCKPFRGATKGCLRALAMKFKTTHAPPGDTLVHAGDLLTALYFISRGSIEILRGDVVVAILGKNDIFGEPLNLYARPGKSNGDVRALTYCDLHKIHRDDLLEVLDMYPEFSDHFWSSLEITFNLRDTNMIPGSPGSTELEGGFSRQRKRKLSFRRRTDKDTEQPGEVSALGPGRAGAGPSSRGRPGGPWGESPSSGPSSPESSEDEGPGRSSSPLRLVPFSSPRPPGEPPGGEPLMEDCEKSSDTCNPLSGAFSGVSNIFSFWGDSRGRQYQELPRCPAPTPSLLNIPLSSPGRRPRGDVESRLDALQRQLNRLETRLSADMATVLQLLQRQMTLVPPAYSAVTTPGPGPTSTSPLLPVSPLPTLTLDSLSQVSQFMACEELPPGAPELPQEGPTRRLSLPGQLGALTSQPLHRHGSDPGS

For `COc1ccc(NCCNCCCF)c(F)c1[C@@H]1c2[nH]c3ccccc3c2C[C@@H](C)N1CC(F)(F)F` [Example 90, N1-(2-fluoro-4-methoxy-3-((1R,3R)-3-methyl-2-(2,2,2-trifluoroethyl)-2,3,4,9-tetrahydro-1H-pyrido[3,4-b]indol-1-yl)phenyl)-N2-(3-fluoropropyl)ethane-1,2-diamine], the IC50 in data set [1] was determined as 0.65 nM; in data set [2] it was 0.3 nM; in data set [8], 5000 nM. The “CAMA1 Western % ER deg vs Fv” value in data set [3] was 93%. In data set [4], the “MCF7 Western % ER deg vs Fv” value was 76%. Moreover, in data set [5], the logD was 2.8. The solubility at 24 h in data set [6] amounted to 365 µM (≈ 186 µg/mL). Besides, the “Human plasma protein binding (% free)” value in data set [7] is recorded as 1.1 % free.
Regarding `C[C@@H]1Cc2c([nH]c3cccc(F)c23)[C@@H](c2c(F)ccc(OCCNCCCF)c2F)N1CC(F)(F)CO` [Example 62, 3-((1R,3R)-1-(2,6-difluoro-3-(2-((3-fluoropropyl)amino)ethoxy)phenyl)-5-fluoro-3-methyl-1,3,4,9-tetrahydro-2H-pyrido[3,4-b]indol-2-yl)-2,2-difluoropropan-1-ol], the IC50 is 0.71 nM in data set [1], 0.076 nM in data set [2] and 5000 nM in data set [8]. Also, in data set [3], the “CAMA1 Western % ER deg vs Fv” value was determined as 96%. Further, the “MCF7 Western % ER deg vs Fv” value in data set [4] is 95%. In addition, the logD in data set [5] is 3.3. This compound also registered a solubility at 24 h in data set [6] of 302 µM (≈ 160 µg/mL). For the same compound, the “Human plasma protein binding (% free)” value in data set [7] was determined as 1.2 % free.
As to `C[C@@H]1Cc2c([nH]c3cc(F)ccc23)[C@@H](c2c(F)ccc(OCCNCCCF)c2F)N1CC(F)(F)CO` [Example 61, 3-((1R,3R)-1-(2,6-difluoro-3-(2-((3-fluoropropyl)amino)ethoxy)phenyl)-7-fluoro-3-methyl-1,3,4,9-tetrahydro-2H-pyrido[3,4-b]indol-2-yl)-2,2-difluoropropan-1-ol], the IC50 in data set [1] came to 0.79 nM; in data set [2] it was 0.19 nM; in data set [8] it was 2700 nM. In addition, the “CAMA1 Western % ER deg vs Fv” value in data set [3] stood at 83%. Also, the “MCF7 Western % ER deg vs Fv” value in data set [4] amounted to 94%. This compound also returned a logD in data set [5] of 3. Moreover, the solubility at 24 h in data set [6] is 446 µM (≈ 236 µg/mL). Also, the “Human plasma protein binding (% free)” value in data set [7] turned out to be 2.0 % free.
`C[C@@H]1Cc2c([nH]c3ccc(F)cc23)[C@@H](c2c(F)ccc(OCCNCCCF)c2F)N1CC(F)(F)CO` [Example 15, 3-((1R,3R)-1-(2,6-difluoro-3-(2-((3-fluoropropyl)amino)ethoxy)phenyl)-6-fluoro-3-methyl-1,3,4,9-tetrahydro-2H-pyrido[3,4-b]indol-2-yl)-2,2-difluoropropan-1-ol]: the IC50 in data set [1] was determined as 0.55 nM; in data set [2] it was 0.079 nM; in data set [8], 4600 nM. In addition, the “CAMA1 Western % ER deg vs Fv” value in data set [3] turned out to be 91%. In data set [4], the “MCF7 Western % ER deg vs Fv” value is given as 94%. In data set [5], this compound came in with a logD of 2.9. Also, in data set [6], the solubility at 24 h was 571 µM (≈ 302 µg/mL). Moreover, in data set [7], the “Human plasma protein binding (% free)” value was determined as 3.2 % free.
Regarding `C[C@@H]1Cc2c([nH]c3c(F)cccc23)[C@@H](c2c(F)ccc(OCCNCCCF)c2F)N1CC(F)(F)CO` [Example 60, 3-((1R,3R)-1-(2,6-difluoro-3-(2-((3-fluoropropyl)amino)ethoxy)phenyl)-8-fluoro-3-methyl-1,3,4,9-tetrahydro-2H-pyrido[3,4-b]indol-2-yl)-2,2-difluoropropan-1-ol], the IC50 came to 0.84 nM in data set [1], 0.12 nM in data set [2] and 4400 nM in data set [8]. Further, the “CAMA1 Western % ER deg vs Fv” value in data set [3] came to 97%. In data set [4], the “MCF7 Western % ER deg vs Fv” value amounted to 92%. This compound came in with a logD in data set [5] of 3. Moreover, the solubility at 24 h in data set [6] came out at 351 µM (≈ 186 µg/mL). In addition, the “Human plasma protein binding (% free)” value in data set [7] came out at 1.9 % free.
`C[C@@H]1Cc2c([nH]c3ccc(F)cc23)[C@@H](c2c(F)cnc(OCCNCCCF)c2F)N1CC(F)(F)CO` [Example 65, 3-((1R,3R)-1-(3,5-difluoro-2-(2-((3-fluoropropyl)amino)ethoxy)pyridin-4-yl)-6-fluoro-3-methyl-1,3,4,9-tetrahydro-2H-pyrido[3,4-b]indol-2-yl)-2,2-difluoropropan-1-ol]: the 50% inhibitory concentration (IC50) in data set [1] stood at 0.64 nM; in data set [2], 0.058 nM; in data set [8], 9400 nM. Also, the “CAMA1 Western % ER deg vs Fv” value in data set [3] came out at 97%. Also, the “MCF7 Western % ER deg vs Fv” value in data set [4] is reported as 94%. This compound also had a logD in data set [5] of 3. The solubility at 24 h in data set [6] stood at 462 µM (≈ 245 µg/mL). Further, the “Human plasma protein binding (% free)” value in data set [7] amounted to 1.9 % free.
Consider `Cc1c(OCCNCCCF)ncc(F)c1[C@@H]1c2[nH]c3ccccc3c2C[C@@H](C)N1CC(F)(F)CO` [Example 110, 2,2-difluoro-3-((1R,3R)-1-(5-fluoro-2-(2-((3-fluoropropyl)amino)ethoxy)-3-methylpyridin-4-yl)-3-methyl-1,3,4,9-tetrahydro-2H-pyrido[3,4-b]indol-2-yl)propan-1-ol], for which the IC50 in data set [1] worked out at 0.43 nM; in data set [2] it was 0.045 nM; in data set [8], 2800 nM. The “CAMA1 Western % ER deg vs Fv” value in data set [3] is given as 83%. In data set [4], the “MCF7 Western % ER deg vs Fv” value was found to be 91%. The compound also returned a logD in data set [5] of 3.1. Moreover, the solubility at 24 h in data set [6] is 939 µM (≈ 478 µg/mL).
With `C[C@@H]1Cc2c([nH]c3ccccc23)[C@@H](c2cc(OCCNCCCF)ccc2C#N)N1CC(F)(F)F` [Example 23, 4-(2-((3-fluoropropyl)amino)ethoxy)-2-((1R,3R)-3-methyl-2-(2,2,2-trifluoroethyl)-2,3,4,9-tetrahydro-1H-pyrido[3,4-b]indol-1-yl)benzonitrile], the IC50 in data set [1] is 2.7 nM; in data set [2], 0.5 nM; in data set [8] it was 5400 nM. In addition, the “CAMA1 Western % ER deg vs Fv” value in data set [3] is recorded as 95%. The “MCF7 Western % ER deg vs Fv” value in data set [4] worked out at 95%. In addition, the logD in data set [5] came to 3.4. The solubility at 24 h in data set [6] was 73 µM (≈ 35.7 µg/mL). Further, the “Human plasma protein binding (% free)” value in data set [7] is reported as 3.7 % free.
As to `C[C@@H]1Cc2c([nH]c3ccccc23)[C@@H](c2nccc(OCCNCCCF)c2F)N1CC(F)(F)CO` [Example 97, 2,2-difluoro-3-((1S,3R)-1-(3-fluoro-4-(2-((3-fluoropropyl)amino)ethoxy)pyridin-2-yl)-3-methyl-1,3,4,9-tetrahydro-2H-pyrido[3,4-b]indol-2-yl)propan-1-ol], the IC50 in data set [1] was 2.2 nM; in data set [2] it was 0.66 nM; in data set [8], 18000 nM. For the same compound, the “CAMA1 Western % ER deg vs Fv” value in data set [3] came out at 84%. In addition, in data set [4], the “MCF7 Western % ER deg vs Fv” value stood at 89%. Moreover, in data set [5], the pH-dependent lipophilicity (logD) turned out to be 1.8. Besides, in data set [6], the solubility at 24 h was over 1000 µM. Further, the “Human plasma protein binding (% free)” value in data set [7] was found to be 6.8 % free.
With `C[C@@H]1Cc2c([nH]c3ccccc23)[C@@H](c2c(F)ccc(OCCNCCCF)c2F)N1CC1(F)COC1` [Example 13, N-(2-(2,4-difluoro-3-((1R,3R)-2-((3-fluorooxetan-3-yl)methyl)-3-methyl-2,3,4,9-tetrahydro-1H-pyrido[3,4-b]indol-1-yl)phenoxy)ethyl)-3-fluoropropan-1-amine], the values for the IC50 in data set [1], in data set [2] and in data set [8] were 1.6 nM, 0.22 nM and 2600 nM, respectively. Also, the “CAMA1 Western % ER deg vs Fv” value in data set [3] turned out to be 92%. Moreover, the “MCF7 Western % ER deg vs Fv” value in data set [4] is listed as 83%. In data set [5], this compound had a logD of 2.6. Moreover, the solubility at 24 h in data set [6] came to 493 µM (≈ 249 µg/mL). The “Human plasma protein binding (% free)” value in data set [7] came to 3.5 % free.
`C[C@@H]1Cc2c([nH]c3ccccc23)[C@@H](c2cc(OCCNCCCF)ccc2Cl)N1CC(F)(F)CO` [Example 44, 3-((1R,3R)-1-(2-chloro-5-(2-((3-fluoropropyl)amino)ethoxy)phenyl)-3-methyl-1,3,4,9-tetrahydro-2H-pyrido[3,4-b]indol-2-yl)-2,2-difluoropropan-1-ol]: the figures for the IC50 in data set [1], in data set [2] and in data set [8] were 1 nM, 0.14 nM and 2900 nM, respectively. Moreover, in data set [3], the “CAMA1 Western % ER deg vs Fv” value came to 94%. Also, the “MCF7 Western % ER deg vs Fv” value in data set [4] is on record as 95%. Also, in data set [5], the logD amounted to 3.3. This compound yielded a solubility at 24 h in data set [6] of 278 µM (≈ 142 µg/mL). The “Human plasma protein binding (% free)” value in data set [7] was 2.3 % free.
`C[C@@H]1Cc2c([nH]c3ccccc23)[C@@H](c2c(F)ccc(NCCNCCCF)c2F)N1CC(F)(F)F` [Example 88, N1-(2,4-difluoro-3-((1R,3R)-3-methyl-2-(2,2,2-trifluoroethyl)-2,3,4,9-tetrahydro-1H-pyrido[3,4-b]indol-1-yl)phenyl)-N2-(3-fluoropropyl)ethane-1,2-diamine]: the IC50 in data set [1] was determined as 2.2 nM; in data set [2], 0.28 nM; in data set [8], 4800 nM. In data set [3], the “CAMA1 Western % ER deg vs Fv” value was found to be 93%. In data set [4], the “MCF7 Western % ER deg vs Fv” value is 90%. Moreover, the logD in data set [5] was 3.4. The compound further showed a solubility at 24 h in data set [6] of 118 µM (≈ 58.8 µg/mL). Moreover, the “Human plasma protein binding (% free)” value in data set [7] is 0.58 % free.
For the compound `C[C@@H]1Cc2c([nH]c3ccccc23)[C@@H](c2nccc(OCCNCCCF)c2F)N1CC(F)(F)F` [Example 92, 3-fluoro-N-(2-((3-fluoro-2-((1S,3R)-3-methyl-2-(2,2,2-trifluoroethyl)-2,3,4,9-tetrahydro-1H-pyrido[3,4-b]indol-1-yl)pyridin-4-yl)oxy)ethyl)propan-1-amine], the IC50 in data set [1] is 1.6 nM; in data set [2] it was 0.4 nM; in data set [8] it was 23000 nM. Besides, in data set [3], the “CAMA1 Western % ER deg vs Fv” value amounted to 91%. Besides, the “MCF7 Western % ER deg vs Fv” value in data set [4] is on record as 93%. In addition, the logD in data set [5] came to 2.7. The solubility at 24 h in data set [6] was found to be 468 µM (≈ 226 µg/mL).
